One data set relates to HBV. Nature of the data set: HBV inhibitory activity: HBV DNA in the culture medium of HepG2.2.15 cells by q-PCR. Format: cell-based. The note with it: HepG2.2.15 cells, 6 days of compound treatment, HBV DNA in culture medium by q-PCR, highest concentration 10 μM, read-out: EC50. An outline of the steps:
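Supernatant HBV DNA quantified by q-PCR after a 6-day compound exposure, with one mid-course medium change, of HepG2.2.15 cells (stably integrated HBV; 40,000 per well, 2% FBS). Eight-point 3-fold series topped at 10 μM for antiviral EC50; separate plates of 5,000 cells per well with 100 μM top give CC50.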

Data set [1] in a line: Cytotoxicity determination in HepG2.2.15 cells (CCK-8). Particulars: human, 6 days of compound treatment, CCK-8, highest concentration 100 μM. Format: cell-based. An outline of the steps: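 CC50 is from CCK-8 absorbance (450 nm, 630 nm reference) after 2.5 h with reagent. Before that, compounds were applied for six days, top concentration 100 μM, eight threefold dilutions, one mid-course medium change, to stably HBV-integrated HepG2.2.15 cells plated at 5,000/well in 2% FBS.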

Where [2] appears, read: Hepatitis B virus, HepG2.2.15, 144 h.

pEC50: −log10 of the molar value. Where two headings read alike, the source gives them in different places.

As to `COC(=O)C1=C(C2CCN(S(=O)(=O)[C@H]3CC[C@H](CC(=O)O)CC3)CC2)NC(c2nccs2)=NC1c1ccc(F)c(F)c1Cl` (relative stereo) [Compound 478A, (trans)-2-(4-((4-(6-(2-Chloro-3,4-difluorophenyl)-5-(methoxycarbonyl)-2-(thiazol-2-yl)-3,6-dihydropyrimidin-4-yl)piperidin-1-yl)sulfonyl)cyclohexyl)acetic Acid], the negative-log EC50 (pEC50) (as a rule, the EC50 on a negative log10 scale, so that one unit is a factor of ten) with HBV (setting [2]) was 7.68. Further, half-maximal cytotoxicity in data set [1] (CC50 at 6 days) was put at 9.9 µM.

Regarding `COC(=O)C1=C(C2CCOCC2)NC(c2nccs2)=NC1c1cccc(F)c1Cl` (single isomer, unassigned) [Compound 50B, 4-(2-Chloro-3-fluoro-phenyl)-6-(tetrahydro-pyran-4-yl)-2-thiazol-2-yl-1,4-dihydro-pyrimidine-5-carboxylic acid methyl ester], the negative logarithm of the EC50 (pEC50) with HBV (setting [2]) was 6.57. Besides, the CC50 (commonly the concentration at which the toxic effect on the cells reaches its halfway point) at 6 days in data set [1] was found to be 35.6 µM.

As to `COC(=O)C1=C([C@H]2CC[C@H](NS(=O)(=O)CCO)CC2)NC(c2nccs2)=NC1c1ccc(F)cc1Cl` (relative stereo) [Compound 187B, (trans)-Methyl 4-(2-chloro-4-fluorophenyl)-6-(4-(2-hydroxyethylsulfonamido)cyclohexyl)-2-(thiazol-2-yl)-1,4-dihydropyrimidine-5-carboxylate], in the data set on HBV (setting [2]), the pEC50 is 7.49. The same molecule returned a CC50 at 6 days in data set [1] of 18.9 µM.

For `COC(=O)C1=C([C@H]2CC[C@H](N(CC(=O)O)S(C)(=O)=O)CC2)NC(c2nccs2)=NC1c1ccc(F)cc1Cl` (relative stereo) [Compound 139, 2-(N-(trans-4-(6-(2-chloro-4-fluorophenyl)-5-(methoxycarbonyl)-2-(thiazol-2-yl)-3,6-dihydropyrimidin-4-yl)cyclohexyl)methylsulfonamido)acetic Acid], the pEC50 in the data set with HBV (setting [2]) was 6.95. The same molecule yielded a cytotoxic concentration (CC50) at 6 days in data set [1] of 75.6 µM.

In the case of `COC(=O)C1=C(C2CCN(S(C)(=N)=O)CC2)NC(c2nccs2)=NC1c1ccc(F)c(F)c1Cl` (stereo not drawn) [Compound 205A, methyl 4-(2-chloro-3,4-difluorophenyl)-6-(1-(S-methylsulfonimidoyl)piperidin-4-yl)-2-(thiazol-2-yl)-1,4-dihydropyrimidine-5-carboxylate], the pEC50 in the data set on HBV is 8.15. In data set [1], this molecule came in with a cytotoxic concentration (CC50) at 6 days of 42.3 µM.

On to `COC(=O)C1=C(C2CCN(S(=O)(=O)CC(=O)O)C2)NC(c2nccs2)=NC1c1ccc(F)cc1Cl` (single isomer, unassigned) [Compound 214A, 2-((−3-(−6-(2-Chloro-4-fluorophenyl)-5-(methoxycarbonyl)-2-(thiazol-2-yl)-3,6-dihydropyrimidin-4-yl)pyrrolidin-1-yl)sulfonyl)acetic Acid], for which, in the data set with HBV, the negative logarithm of the EC50 (pEC50) is 6.71. Also, the CC50 at 6 days in data set [1] was over 100 µM.

For `COC(=O)C1=C(C2CCN(S(=O)(=O)c3cnn(C4CC4)c3)CC2)NC(c2nccs2)=NC1c1ccc(F)cc1Cl` (stereo not drawn) [Compound 254], in the data set on HBV (setting [2]), the negative-log EC50 (pEC50) was 7.33. Also, the CC50 at 6 days in data set [1] was over 100 µM.

As to `COC(=O)C1=C(C2CCCCO2)NC(c2nccs2)=NC1c1ccc(F)cc1Cl` (single isomer, unassigned) [Compound 49C, Methyl 4-(2-chloro-4-fluorophenyl)-6-(tetrahydro-2H-pyran-2-yl)-2-(thiazol-2-yl)-1,4-dihydropyrimidine-5-carboxylate], the negative-log EC50 (pEC50) in the data set on HBV (setting [2]) is 6.69. Besides, it took 84.6 µM to reach half-maximal cytotoxicity in data set [1] (CC50 at 6 days).

Regarding `COC(=O)C1=C(C2CCN(S(=O)(=O)C3CC(O)C3)CC2)NC(c2nccs2)=NC1c1ccc(F)cc1Cl` (single isomer, unassigned) [Compound 335A, Methyl 4-(2-chloro-4-fluorophenyl)-6-(1-((3-hydroxycyclobutyl)sulfonyl)piperidin-4-yl)-2-(thiazol-2-yl)-1,4-dihydropyrimidine-5-carboxylate], the pEC50 in the data set with HBV (setting [2]) is 7.70. In data set [1], this molecule displayed a CC50 at 6 days of 12.2 µM.

As to `COC(=O)C1=C(C2CCN(S(=O)(=O)C3COC3)C2)NC(c2nccs2)=NC1c1ccc(F)cc1Cl` (stereo not drawn) [Compound 255, Methyl 4-(2-chloro-4-fluorophenyl)-6-(−1-(oxetan-3-ylsulfonyl)pyrrolidin-3-yl)-2-(thiazol-2-yl)-1,4-dihydropyrimidine-5-carboxylate], the negative logarithm of the EC50 (pEC50) in the data set with HBV (setting [2]) is 7.31. The same molecule returned a CC50 at 6 days in data set [1] of 24.1 µM.

For the molecule `COC(=O)C1=C([C@H]2CC[C@H](N(CCO)S(C)(=O)=O)CC2)NC(c2nccs2)=NC1c1ccc(F)c(F)c1Cl` (single isomer, unassigned) [Compound 315D, (trans)-Methyl 4-(2-chloro-3,4-difluorophenyl)-6-(4-(N-(2-hydroxyethyl)methylsulfonamido)cyclohexyl)-2-(thiazol-2-yl)-1,4-dihydropyrimidine-5-carboxylate], the negative logarithm of the EC50 (pEC50) in the data set on HBV (setting [2]) was 7.60. The molecule also yielded a CC50 at 6 days in data set [1] of 12.6 µM.

Consider `CCOC(=O)C1=C([C@H]2CC[C@H](C(=O)O)CC2)NC(c2nccs2)=NC1c1ccc(F)cc1Cl` (single isomer, unassigned) [Compound 21, trans-4-(6-(2-Chloro-4-fluorophenyl)-5-(ethoxycarbonyl)-2-(thiazol-2-yl)-3,6-dihydropyrimidin-4-yl)cyclohexanecarboxylic Acid], for which the negative-log EC50 (pEC50) in the data set with HBV (setting [2]) was 7.51. Besides, the CC50 at 6 days in data set [1] is 9.9 µM.

Take `COC(=O)C1=C(C2CCNC(=O)C2)NC(c2nccs2)=NC1c1ccc(F)cc1Cl` (stereo not drawn) [Compound 3, Methyl 4-(2-chloro-4-fluorophenyl)-6-(2-oxopiperidin-4-yl)-2-(thiazol-2-yl)-1,4-dihydro-pyrimidine-5-carboxylate]: the pEC50 in the data set on HBV (setting [2]) was 7.42. The molecule further had a CC50 at 6 days in data set [1] of 32.8 µM.

With `COC(=O)C1=C(C2CCN(S(=O)(=O)CCO)CC2)NC(c2nccs2)=NC1c1ccc(F)c(F)c1Cl` (stereo not drawn) [Compound 474, methyl 4-(2-chloro-3,4-difluorophenyl)-6-(1-((2-hydroxyethyl)sulfonyl)piperidin-4-yl)-2-(thiazol-2-yl)-1,4-dihydropyrimidine-5-carboxylate], in the data set with HBV (setting [2]), the pEC50 is 8.15. Moreover, the cytotoxic concentration (CC50) at 6 days in data set [1] is 18.3 µM.

Consider `COC(=O)C1=C([C@H]2CC[C@@H](S(=O)(=O)NC(C)C)CC2)NC(c2nccs2)=NC1c1ccc(F)c(F)c1Cl` (single isomer, unassigned) [Compound 234B, (cis)-methyl 4-(2-chloro-3,4-difluorophenyl)-6-(4-(N-isopropylsulfamoyl)cyclohexyl)-2-(thiazol-2-yl)-1,4-dihydropyrimidine-5-carboxylate], for which the negative-log EC50 (pEC50) in the data set on HBV (setting [2]) is 6.95. Further, in data set [1], the cytotoxic concentration (CC50) at 6 days turned out to be 16.3 µM.

As to `COC(=O)C1=C([C@H]2CC[C@@H](N(CCO)S(C)(=O)=O)CC2)NC(c2nccs2)=NC1c1ccc(F)cc1Cl` (single isomer, unassigned) [Compound 180B, (cis)-Methyl 4-(2-chloro-4-fluorophenyl)-6-(4-(N-(2-hydroxyethyl)methylsulfonamido)cyclohexyl)-2-(thiazol-2-yl)-1,4-dihydro-pyrimidine-5-carboxylate], the pEC50 in the data set with HBV (setting [2]) is 7.62. For the same molecule, the half-maximal cytotoxic concentration (CC50) at 6 days in data set [1] was 22.1 µM.

On to `COC(=O)C1=C(C2CCN(C(=O)CNC(=O)OC(C)(C)C)CC2)NC(c2nccs2)=NC1c1ccc(F)cc1Cl` (stereo not drawn) [Compound 129, 6-[1-(2-tert-Butoxycarbonylamino-acetyl)-piperidin-4-yl]-4-(2-chloro-4-fluoro-phenyl)-2-thiazol-2-yl-1,4-dihydro-pyrimidine-5-carboxylic Acid Methyl Ester], for which, in the data set on HBV (setting [2]), the pEC50 is 7.26. Further, half-maximal cytotoxicity in data set [1] (CC50 at 6 days) was put at 28.2 µM.

On to `CCOC(=O)C1=C([C@H]2C[C@@H](NS(C)(=O)=O)C2(C)C)NC(c2nccs2)=NC1c1ccc(F)cc1Cl` (single isomer, unassigned) [Compound 437A, (cis)-Ethyl 4-(2-chloro-4-fluorophenyl)-6-(2,2-dimethyl-3-(methylsulfonamido)cyclobutyl)-2-(thiazol-2-yl)-1,4-dihydropyrimidine-5-carboxylate], for which, in the data set on HBV (setting [2]), the pEC50 was 6.22. Also, the cytotoxic concentration (CC50) at 6 days in data set [1] was determined as 10.4 µM.

`COC(=O)C1=C(C2C[C@@H]3CN(S(C)(=O)=O)C[C@@H]3C2)NC(c2nccs2)=NC1c1ccc(F)cc1Cl` (single isomer, unassigned) [Compound 176A, Methyl 4-(2-chloro-4-fluorophenyl)-6-((cis)-2-(methylsulfonyl)-octahydrocyclopenta[c]pyrrol-5-yl)-2-(thiazol-2-yl)-1,4-dihydropyrimidine-5-carboxylate]: in the data set on HBV (setting [2]), the negative logarithm of the EC50 (pEC50) was 7.16. In data set [1], this molecule displayed a cytotoxic concentration (CC50) at 6 days of 19.9 µM.

On to `COC(=O)C1=C([C@H]2C[C@@H](CO)CO2)NC(c2nccs2)=NC1c1cccc(F)c1Cl` (relative stereo) [Compound 221, (cis)-Methyl 4-(2-chloro-3-fluorophenyl)-6-(4-(hydroxymethyl)tetrahydrofuran-2-yl)-2-(thiazol-2-yl)-1,4-dihydropyrimidine-5-carboxylate], for which, in the data set on HBV (setting [2]), the pEC50 is 7.28. Besides, the CC50 at 6 days in data set [1] turned out to be 47.1 µM.

With `COC(=O)C1=C([C@H]2CC[C@@H](C(=O)OC)O2)NC(c2nccs2)=NC1c1cccc(F)c1Cl` (single isomer, unassigned) [Compound 73H, cis-Methyl 4-(2-chloro-3-fluorophenyl)-6-(5-(methoxycarbonyl)-tetrahydro-furan-2-yl)-2-(thiazol-2-yl)-1,4-dihydropyrimidine-5-carboxylate], the negative logarithm of the EC50 (pEC50) with HBV (setting [2]) is 6.46. In data set [1], this molecule returned a half-maximal cytotoxic concentration (CC50) at 6 days of 32.9 µM.

These data come from patent US11639350B2, “Heteroaryldihydropyrimidine derivatives and methods of treating hepatitis B infections” (Janssen Pharmaceutica NV, priority 2018, dated 2023).
